The target in assay [1] is T1, GBA2 (Homo sapiens, UniProt Q9HCG7).
T1 sequence (Q9HCG7 1-927): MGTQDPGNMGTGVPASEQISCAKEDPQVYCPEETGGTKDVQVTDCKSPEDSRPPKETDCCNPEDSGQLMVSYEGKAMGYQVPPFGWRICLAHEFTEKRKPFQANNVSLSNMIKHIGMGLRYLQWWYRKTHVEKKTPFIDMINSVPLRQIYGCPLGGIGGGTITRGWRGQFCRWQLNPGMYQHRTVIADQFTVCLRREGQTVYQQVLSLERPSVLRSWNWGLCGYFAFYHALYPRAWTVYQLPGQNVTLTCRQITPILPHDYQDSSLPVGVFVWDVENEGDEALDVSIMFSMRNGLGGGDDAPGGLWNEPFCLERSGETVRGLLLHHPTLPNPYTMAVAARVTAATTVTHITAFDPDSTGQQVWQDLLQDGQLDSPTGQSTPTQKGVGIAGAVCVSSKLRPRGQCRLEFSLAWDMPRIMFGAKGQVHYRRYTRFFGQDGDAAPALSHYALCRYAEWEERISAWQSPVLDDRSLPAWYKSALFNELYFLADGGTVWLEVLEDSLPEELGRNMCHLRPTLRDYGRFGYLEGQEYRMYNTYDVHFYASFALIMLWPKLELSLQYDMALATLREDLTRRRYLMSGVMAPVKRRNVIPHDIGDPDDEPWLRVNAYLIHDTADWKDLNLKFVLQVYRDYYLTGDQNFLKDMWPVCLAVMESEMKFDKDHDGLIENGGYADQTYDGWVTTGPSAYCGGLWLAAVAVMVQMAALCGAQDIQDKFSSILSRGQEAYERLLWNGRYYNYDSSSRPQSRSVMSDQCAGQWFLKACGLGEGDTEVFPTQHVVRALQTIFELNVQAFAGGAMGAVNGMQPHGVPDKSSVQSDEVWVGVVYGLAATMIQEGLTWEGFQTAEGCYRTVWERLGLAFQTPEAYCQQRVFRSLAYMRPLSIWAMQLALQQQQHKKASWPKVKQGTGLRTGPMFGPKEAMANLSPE
Put plainly: Determination of IC50 values for inhibition of GBA2 in cell lysate. Also on record: host or cells: HEK293T (lentiviral transduction, puromycin selection); used as cellular homogenate. It is filed as biochemical. Summed up: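 Fluorogenic 4-MU-β-glucoside (250 μM) turnover over 20 min at 37 °C, pH 5.5, measured after NaOH/glycine stop (ex 365, em 450 nm). Enzyme source: lysate (0.083 mg/mL) of lentivirally transduced GBA2-HEK293T, GCase blocked by 20 μM azaspiro-octanediol; compound preincubated 5 min; IC50 = 50% inhibition concentration.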

Assay [2] addresses T1, GBA2. Put plainly: Binding specificity (selectivity) for GBA2 over other enzymes. It is filed as biochemical. The conditions noted are these: compared to a suitable reference compound, e.g. NB-DNJ (miglustat) or AMP-DNM. The source says: In some embodiments, one or more of the compounds according to the invention may specifically bind a GBA2. In alternative embodiments, one or more of the compounds according to the invention may specifically bind the active site of a GBA2. […] In alternative embodiments, one or more of the compounds according to the invention may specifically bind the human non-lysosomal glucosylceramidase (GBA2) over the human lysosomal glucosylceramidase (GCase) and/or the human cytosolic glucosylceramidase (GBA3). In alternative embodiments, one or more of the compounds according to the invention may specifically bind the human non-lysosomal glucosylceramidase (GBA2) over the human glucosylceramide synthase (GCS). In alternative embodiments, one or more of the compounds according to the invention may specifically bind the human non-lysosomal glucosylceramidase (GBA2) over an intestinal alpha-glucosidase, where the intestinal alpha-glucosidase may be a sucrase-isomaltase or a maltase-glucoamylase.

The mark [3] stands for this setting: cellular homogenate of HEK293T cells overexpressing human GBA2, 250 μM 4-methylumbelliferone-β-D glucopyranoside, pH 5.5, 37° C., GCase inhibitor present, read-out: GBA2 IC50.

The values that follow come from patent publication US12612380B2, “Non-lysosomal glucosylceramidase inhibitors and uses thereof” (ALECTOS THERAPEUTICS INC., priority 2019, dated 2026).

Like-named read-outs stand apart in the source and are kept apart here.

Consider `C[C@@H]1[C@@H](O)[C@H](O)[C@@H](O)CN1C[C@H]1CC[C@@H](C(C)(C)C)CC1` [Example 9, (2R,3R,4R,5S)-1-(((1s,4S)-4-(tert-butyl)cyclohexyl)methyl)-2-methylpiperidine-3,4,5-triol], for which the IC50 (commonly the midpoint of a concentration-inhibition curve) at GBA2 [1] (setting [3]) is under 100 nM. Besides, on GBA2 [2], the “binding specificity (IC50 or Ki of other molecule / GBA2)” value is “enhanced binding specificity”. Consider `C[C@@H]1[C@@H](O)[C@H](O)[C@@H](O)CN1C[C@H]1CC[C@@H](C(F)(F)F)CC1` [Example 11, (2R,3R,4R,5S)-2-methyl-1-(((1s,4S)-4-(trifluoromethyl)cyclohexyl)methyl)piperidine-3,4,5-triol], for which the IC50 at GBA2 [1] (setting [3]) is under 100 nM. Moreover, on GBA2 [2], the “binding specificity (IC50 or Ki of other molecule / GBA2)” value was “enhanced binding specificity”. On the same counts, the results for `C[C@@H]1[C@@H](O)[C@H](O)[C@@H](O)CN1C[C@H]1CC[C@@H](C(C)(C)F)CC1` [Example 13, (2R,3R,4R,5S)-1-(((1s,4S)-4-(2-fluoropropan-2-yl)cyclohexyl)methyl)-2-methylpiperidine-3,4,5-triol] are under 100 nM and “enhanced binding specificity”. On the same counts, the results for `C[C@@H]1[C@@H](O)[C@H](O)[C@@H](O)CN1C[C@H]1CC[C@@H](C2CC2)CC1` [Example 20, (2R,3R,4R,5S)-1-(((1s,4S)-4-cyclopropylcyclohexyl)methyl)-2-methylpiperidine-3,4,5-triol] are under 100 nM and “enhanced binding specificity”. As to `C[C@@H]1[C@@H](O)[C@H](O)[C@@H](O)CN1CC1CCC2(CCC2)CC1` [Example 24, (2R,3R,4R,5S)-2-methyl-1-(spiro[3.5]nonan-7-ylmethyl)piperidine-3,4,5-triol], the concentration for half-maximal inhibition (IC50) on GBA2 [1] (setting [3]) is under 100 nM. In addition, the “binding specificity (IC50 or Ki of other molecule / GBA2)” value at GBA2 [2] was “enhanced binding specificity”. On to `CC(C)c1cc(F)c(CCN2C[C@H](O)[C@@H](O)[C@H](O)[C@H]2C)c(F)c1` [Example 51, (2R,3R,4R,5S)-1-(2,6-difluoro-4-isopropylphenethyl)-2-methylpiperidine-3,4,5-triol], for which, at GBA2 [1], the IC50 is under 100 nM. Further, the “binding specificity (IC50 or Ki of other molecule / GBA2)” value on GBA2 [2] is listed as “enhanced binding specificity”. On the same counts, the results for `CC(C)c1ccc(F)c(CCN2C[C@H](O)[C@@H](O)[C@H](O)[C@H]2C)c1F` [Example 52, (2R,3R,4R,5S)-1-(2,6-difluoro-3-isopropylphenethyl)-2-methylpiperidine-3,4,5-triol] are under 100 nM and “enhanced binding specificity”.

For `C[C@@H]1[C@@H](O)[C@H](O)[C@@H](O)CN1C[C@@H]1CCN(c2cncnc2C(F)(F)F)C1` [Example 134, (2R,3R,4R,5S)-2-methyl-1-(((S)-1-(4-(trifluoromethyl)pyrimidin-5-yl)pyrrolidin-3-yl)methyl)piperidine-3,4,5-triol], the IC50 on GBA2 [1] (setting [3]) is under 100 nM. Still for that read-out and setting: with `C[C@@H]1[C@@H](O)[C@H](O)[C@@H](O)CN1C[C@@H]1CCN(c2nc(C(F)(F)F)cs2)C1` [Example 135, (2R,3R,4R,5S)-2-methyl-1-(((S)-1-(4-(trifluoromethyl)thiazol-2-yl)pyrrolidin-3-yl)methyl)piperidine-3,4,5-triol] the figure was under 100 nM; with `C[C@@H]1[C@@H](O)[C@H](O)[C@@H](O)CN1C[C@@H]1CCCN(c2cccc(C(F)(F)F)n2)C1` [Example 143, (2R,3R,4R,5S)-2-methyl-1-(((S)-1-(6-(trifluoromethyl)pyridin-2-yl)piperidin-3-yl)methyl)piperidine-3,4,5-triol], under 100 nM; with `C[C@@H]1[C@@H](O)[C@H](O)[C@@H](O)CN1C[C@@H]1CCCN(c2nc(C(F)(F)F)cs2)C1` [Example 144, (2R,3R,4R,5S)-2-methyl-1-(((S)-1-(4-(trifluoromethyl)thiazol-2-yl)piperidin-3-yl)methyl)piperidine-3,4,5-triol], 100 to 1000 nM. `CC(C)C1CCC(CN2C[C@H](O)[C@@H](O)[C@H](O)[C@H]2CF)CC1` (stereo partly drawn) [Example 145, (2S,3R,4R,5S)-2-(fluoromethyl)-1-((4-isopropylcyclohexyl)methyl)piperidine-3,4,5-triol]: the IC50 on GBA2 [1] (setting [3]) is under 100 nM. In the case of `CC(C)(C)C1CCC(CN2C[C@H](O)[C@@H](O)[C@H](O)[C@H]2CF)CC1` (stereo partly drawn) [Example 146, (2S,3R,4R,5S)-1-((4-(tert-butyl)cyclohexyl)methyl)-2-(fluoromethyl)piperidine-3,4,5-triol], the IC50 on GBA2 [1] (setting [3]) was under 100 nM.

Consider `O[C@H]1[C@H](O)[C@@H](O)CN(CCc2ccccc2)[C@@H]1CF` [Example 148, (2S,3R,4R,5S)-2-(fluoromethyl)-1-phenethylpiperidine-3,4,5-triol], for which the IC50 on GBA2 [1] was 100 to 1000 nM. On the same count and under the same terms, with `O[C@H]1[C@H](O)[C@@H](O)CN(CCc2ccccc2F)[C@@H]1CF` [Example 149, (2S,3R,4R,5S)-2-(fluoromethyl)-1-(2-fluorophenethyl)piperidine-3,4,5-triol] the figure was 100 to 1000 nM; with `CC(C)c1cc(F)c(CCN2C[C@H](O)[C@@H](O)[C@H](O)[C@H]2CF)c(F)c1` [Example 150, (2S,3R,4R,5S)-1-(2,6-difluoro-4-isopropylphenethyl)-2-(fluoromethyl)piperidine-3,4,5-triol], under 100 nM. Same read-out and setting: for `O[C@H]1[C@H](O)[C@@H](O)CN(CCc2ccc3c(c2)OCCO3)[C@@H]1CF` [Example 153, (2S,3R,4R,5S)-1-(2-(2,3-dihydrobenzo[b][1,4]dioxin-6-yl)ethyl)-2-(fluoromethyl)piperidine-3,4,5-triol] the value was under 100 nM. For `O[C@H]1[C@H](O)[C@@H](O)CN(CC2CCN(c3ccccc3)CC2)[C@@H]1CF` [Example 154, (2S,3R,4R,5S)-2-(fluoromethyl)-1-((1-phenylpiperidin-4-yl)methyl)piperidine-3,4,5-triol], the 50% inhibitory concentration (IC50) at GBA2 [1] (setting [3]) is under 100 nM. For the molecule `O[C@H]1[C@H](O)[C@@H](O)CN(CC2CCN(c3ccc(C(F)(F)F)cc3)CC2)[C@@H]1CF` [Example 155, (2S,3R,4R,5S)-2-(fluoromethyl)-1-((1-(4-(trifluoromethyl)phenyl)piperidin-4-yl)methyl)piperidine-3,4,5-triol], on GBA2 [1] (setting [3]), the 50% inhibitory concentration (IC50) was under 100 nM.

As for `O[C@H]1[C@H](O)[C@@H](O)CN(CCc2ccccc2)[C@@H]1C(F)F` [Example 156, (2S,3R,4R,5S)-2-(difluoromethyl)-1-phenethylpiperidine-3,4,5-triol], the IC50 on GBA2 [1] (setting [3]) fell in the range of 1000 to 25000 nM.

`C[C@H]1[C@@H](O)[C@H](O)[C@@H](O)CN1CCc1ccccc1F` [Example 157, (2S,3R,4R,5S)-1-(2-fluorophenethyl)-2-methylpiperidine-3,4,5-triol]: the IC50 at GBA2 [1] lay in the range of 1000 to 25000 nM. Same read-out and setting: with `CCCCOc1cc(F)c(CCN2C[C@H](O)[C@@H](O)[C@H](O)[C@@H]2C)c(F)c1` [Example 158, (2S,3R,4R,5S)-1-(4-butoxy-2,6-difluorophenethyl)-2-methylpiperidine-3,4,5-triol] the figure was 100 to 1000 nM; with `O[C@H]1[C@H](O)[C@H](CF)N(CCc2ccccc2F)C[C@@H]1O` [Example 159, (2R,3R,4R,5S)-2-(fluoromethyl)-1-(2-fluorophenethyl)piperidine-3,4,5-triol], 1000 to 25000 nM; with `CCCCOc1cc(F)c(CCN2C[C@H](O)[C@@H](O)[C@H](O)[C@@H]2CF)c(F)c1` [Example 160, (2R,3R,4R,5S)-1-(4-butoxy-2,6-difluorophenethyl)-2-(fluoromethyl)piperidine-3,4,5-triol], 100 to 1000 nM.
